Reference: patent US20230081426A1, “COMPOUNDS AND METHODS FOR KRAS MODULATION AND INDICATIONS THEREFOR” (Plexxikon Inc., priority 2020, published 2023)
Read-outs that look alike come from different tables or passages of the source.

What was measured:
[1] = biological target: T1, G12V-mutant human KRAS (amino acid residues 1-188) (Homo sapiens, UniProt P01116, G12V); experiment: KRAS Binding Competition Assay (AlphaScreen; biotinylated KRpep-2d analogue), G12V; conditions: geometric mean, read-out: KRAS GMean IC50 (uM) MUTATION: G12V
T1 construct: G12V-mutant human KRAS (amino acid residues 1-188) with FLAG tag was purified from E. coli; made in house; host or cells: E. coli

[2] = biological target: T2, G12D-mutant human KRAS (amino acid residues 1-188) (Homo sapiens, UniProt P01116, G12D); experiment: KRAS Binding Disruption Assay (AlphaScreen; biotinylated KRpep-2d analogue or RAF1-RBD), G12D; conditions: for IC50: geometric mean, read-out: KRAS GMean IC50 (uM) MUTATION: G12D
T2 construct: G12D or G12C-mutant human KRAS (amino acid residues 1-188) with FLAG tag; made in house; host or cells: E. coli
How it was run: (§1)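 Displacement format with mutant KRAS, biotinylated KRpep-2d analogue or RAF1-RBD (5-20 nM each) at pH 7.5 with 5 mM MgCl2.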

[3] = biological target: T3, G12C-mutant human KRAS (amino acid residues 1-188) (Homo sapiens, UniProt P01116, G12C); experiment: KRAS Binding Disruption Assay (AlphaScreen; biotinylated KRpep-2d analogue or RAF1-RBD), G12C; conditions: geometric mean, read-out: KRAS GMean IC50 (uM) MUTATION: G12C
T3 construct: G12D or G12C-mutant human KRAS (amino acid residues 1-188) with FLAG tag; made in house; host or cells: E. coli
How it was run: as §1

| SMILES | IC50 [1] [µM] | IC50 ([2]; KRAS G12D) [µM] | Improved KRAS G12D Biochemical Potency of Compounds with Bridged vs Non-Bridged R^1 Groups ([2]; Table 3, fold more potent than non-bridged version at the R1 variable) | IC50 ([2]; Table 3, bridged vs non-bridged R1) [µM] | IC50 [3] [µM] |
| --- | --- | --- | --- | --- | --- |
| CN1CCC[C@H]1COc1nc(N2C[C@H]3CC[C@@H](C2)N3)c2cc(Cl)c(-c3cc(O)cc4ccccc34)c(F)c2n1 [P-0001, 4-(4-((1R,5S)-3,8-diazabicyclo[3.2.1]octan-3-yl)-6-chloro-8-fluoro-2-(((S)-1-methylpyrrolidin-2-yl)methoxy)quinazolin-7-yl)naphthalen-2-ol] | 10 to 100 | 0.0001 to 10 | P-0001 is about 70 times more potent than its non- bridged version at the R^1 variable. | 0.016 | 0.0001 to 10 |
| Oc1cc(-c2ccc3c(N4C[C@H]5CC[C@@H](C4)N5)nc(OCC45CCCN4CCC5)nc3c2)c2ccccc2c1 [P-0002, 4-(4-((1R,5S)-3,8-diazabicyclo[3.2.1]octan-3-yl)-2-((tetrahydro-1H-pyrrolizin-7a(5H)-yl)methoxy)quinazolin-7-yl)naphthalen-2-ol] | 0.0001 to 10 | 0.0001 to 10 |  |  | 0.0001 to 10 |
| Cc1cccc2cccc(-c3ccc4c(N5C[C@H]6CC[C@@H](C5)N6)nc(OCC56CCCN5CCC6)nc4c3F)c12 [P-0005, 4-((1R,5S)-3,8-diazabicyclo[3.2.1]octan-3-yl)-8-fluoro-7-(8-methylnaphthalen-1-yl)-2-((tetrahydro-1H-pyrrolizin-7a(5H)-yl)methoxy)quinazoline] | 10 to 100 | 0.0001 to 10 |  |  | 0.0001 to 10 |
| NCC(=O)N1[C@@H]2CC[C@H]1CN(c1nc(OCC34CCCN3CCC4)nc3cc(-c4cc(O)cc5ccccc45)ccc13)C2 [P-0007, 2-amino-1-((1R,5S)-3-(7-(3-hydroxynaphthalen-1-yl)-2-((tetrahydro-1H-pyrrolizin-7a(5H)-yl)methoxy)quinazolin-4-yl)-3,8-diazabicyclo[3.2.1]octan-8-yl)ethan-1-one] | 0.0001 to 10 | 0.0001 to 10 |  |  | 0.0001 to 10 |
| O=C(CO)N1[C@@H]2CC[C@H]1CN(c1nc(OCC34CCCN3CCC4)nc3cc(-c4cc(O)cc5ccccc45)ccc13)C2 [P-0008, 2-hydroxy-1-((1R,5S)-3-(7-(3-hydroxynaphthalen-1-yl)-2-((tetrahydro-1H-pyrrolizin-7a(5H)-yl)methoxy)quinazolin-4-yl)-3,8-diazabicyclo[3.2.1]octan-8-yl)ethan-1-one] | 0.0001 to 10 | 0.0001 to 10 |  |  | 0.0001 to 10 |
| CN1CCC[C@H]1COc1nc(N2C[C@H]3CC[C@@H](C2)N3)c2cc(F)c(-c3cc(O)cc4ccccc34)c(F)c2n1 [P-0009, 4-(4-((1R,5S)-3,8-diazabicyclo[3.2.1]octan-3-yl)-6,8-difluoro-2-(((S)-1-methylpyrrolidin-2-yl)methoxy)quinazolin-7-yl)naphthalen-2-ol] | 0.0001 to 10 | 0.0001 to 10 |  |  | 0.0001 to 10 |
| Oc1cc(-c2c(F)cc3c(N4C[C@H]5CC[C@@H](C4)N5)nc(OCC45CCCN4CCC5)nc3c2F)c2ccccc2c1 [P-0010, 4-(4-((1R,5S)-3,8-diazabicyclo[3.2.1]octan-3-yl)-6,8-difluoro-2-((tetrahydro-1H-pyrrolizin-7a(5H)-yl)methoxy)quinazolin-7-yl)naphthalen-2-ol] | 0.0001 to 10 | 0.0001 to 10 |  |  | 0.0001 to 10 |
| Cc1c(-c2cc(O)cc3ccccc23)ccc2c(N3C[C@H]4CC[C@@H](C3)N4)nc(OCC34CCCN3CCC4)nc12 [P-0015, 4-(4-((1R,5S)-3,8-diazabicyclo[3.2.1]octan-3-yl)-8-methyl-2-((tetrahydro-1H-pyrrolizin-7a(5H)-yl)methoxy)quinazolin-7-yl)naphthalen-2-ol] | 0.0001 to 10 | 0.0001 to 10 |  |  | 0.0001 to 10 |
| CN1[C@@H]2CC[C@H]1CN(c1nc(OCC34CCCN3CCC4)nc3cc(-c4cc(O)cc5ccccc45)ccc13)C2 [P-0017, 4-(4-((1R,5S)-8-methyl-3,8-diazabicyclo[3.2.1]octan-3-yl)-2-((tetrahydro-1H-pyrrolizin-7a(5H)-yl)methoxy)quinazolin-7-yl)naphthalen-2-ol] | 10 to 100 | 0.0001 to 10 |  |  | 10 to 100 |
| CN1CCC[C@H]1COc1nc(N2C[C@H]3CC[C@@H](C2)N3)c2cc(C#N)c(-c3cc(O)cc4ccccc34)c(F)c2n1 [P-0021, 4-((1R,5S)-3,8-diazabicyclo[3.2.1]octan-3-yl)-8-fluoro-7-(3-hydroxynaphthalen-1-yl)-2-(((S)-1-methylpyrrolidin-2-yl)methoxy)quinazoline-6-carbonitrile] | 0.0001 to 10 | 0.0001 to 10 |  |  | 0.0001 to 10 |
| CN1CCC[C@H]1COc1nc(N2C[C@H]3CC[C@@H](C2)N3)c2cc(C(=O)O)c(-c3cc(O)cc4ccccc34)c(F)c2n1 [P-0024, 4-(3,8-Diazabicyclo[3.2.1]octan-3-yl)-8-fluoro-7-(3-hydroxy-1-naphthyl)-2-[[(2S)-1-methylpyrrolidin-2-yl]methoxy]quinazoline-6-carboxylic acid] | 0.0001 to 10 | 0.0001 to 10 |  |  | 10 to 100 |
| O=C(CCn1ccnc1)N1[C@@H]2CC[C@H]1CN(c1nc(OCC34CCCN3CCC4)nc3c(F)c(-c4cc(O)cc5ccccc45)ccc13)C2 [P-0807, 1-((1R,5S)-3-(8-fluoro-7-(3-hydroxynaphthalen-1-yl)-2-((tetrahydro-1H-pyrrolizin-7a(5H)-yl)methoxy)quinazolin-4-yl)-3,8-diazabicyclo[3.2.1]octan-8-yl)-3-(1H-imidazol-1-yl)propan-1-one] |  | 0.0001 to 10 |  |  | 0.0001 to 10 |
| N#CCCC(=O)N1[C@@H]2CC[C@H]1CN(c1nc(OCC34CCCN3CCC4)nc3c(F)c(-c4cc(O)cc5ccccc45)ccc13)C2 [P-0808, 4-((1R,5S)-3-(8-fluoro-7-(3-hydroxynaphthalen-1-yl)-2-((tetrahydro-1H-pyrrolizin-7a(5H)-yl)methoxy)quinazolin-4-yl)-3,8-diazabicyclo[3.2.1]octan-8-yl)-4-oxobutanenitrile] |  | 0.0001 to 10 |  |  | 0.0001 to 10 |
| Fc1c(-c2c[nH]c3cccc(F)c23)c(Cl)cc2c(N3C[C@H]4CC[C@@H](C3)N4)nc(OCC34CCCN3CCC4)nc12 [P-0809, 4-((1R,5S)-3,8-diazabicyclo[3.2.1]octan-3-yl)-6-chloro-8-fluoro-7-(4-fluoro-1H-indol-3-yl)-2-((tetrahydro-1H-pyrrolizin-7a(5H)-yl)methoxy)quinazoline] |  | 0.0001 to 10 |  |  | 10 to 100 |
| Oc1cc(-c2ccc3c(N4C[C@H]5CC[C@@H](C4)N5)nc(OCC4CCCC4)nc3c2F)c2ccccc2c1 [P-0810, 4-(4-((1R,5S)-3,8-diazabicyclo[3.2.1]octan-3-yl)-2-(cyclopentylmethoxy)-8-fluoroquinazolin-7-yl)naphthalen-2-ol] |  | 0.0001 to 10 |  |  | 10 to 100 |
| OCCCc1nc(N2C[C@H]3CC[C@@H](C2)N3)c2ccc(-c3cc(O)cc4ccccc34)c(F)c2n1 [P-0811, 4-(4-((1R,5S)-3,8-diazabicyclo[3.2.1]octan-3-yl)-8-fluoro-2-(3-hydroxypropyl)quinazolin-7-yl)naphthalen-2-ol] |  | 0.0001 to 10 |  |  | 100 to 1000 |
| OC/C=C/c1nc(N2C[C@H]3CC[C@@H](C2)N3)c2ccc(-c3cc(O)cc4ccccc34)c(F)c2n1 [P-0812, 4-(4-((1R,5S)-3,8-diazabicyclo[3.2.1]octan-3-yl)-8-fluoro-2-((E)-3-hydroxyprop-1-en-1-yl)quinazolin-7-yl)naphthalen-2-ol] |  | 0.0001 to 10 |  |  | 10 to 100 |
